# Assays:
# Assay type in all cases: in vivo
# [1] = tested on: housefly (Musca domestica L.); experiment: Housefly mortality, residue on aluminum dishes; conditions: 25 3-day old female houseflies; mortality after 48 hours
# Description: Test compounds are diluted in acetone and aliquots are pipetted onto the bottom of 55 × 15 mm aluminum dishes. To insure even spreading of the chemical on the bottom of the dishes, 1 ml of acetone containing 0.02% peanut oil is also added to each dish. After all solvents have evaporated the dishes are placed in circular cardboard cages containing 25 3-day old female houseflies. The cages are covered on the bottom with cellophane and the top with tulle netting, and each contains a sugar-water saturated cotton plug for maintenance of the flies. Mortality is recorded after 48 hours. Test levels range from 100 μg/25 F. houseflies down to that at which approximately 50% mortality occurs.
# [2] = tested on: Green Peach Aphid [Myzus persicae (Sulzer)]; experiment: Green Peach Aphid spray on radish plants; conditions: sprayed to runoff on radish plants; mortality after 48 hours
# Description: Radish plants (Rhaphanus sativus), approximately 2 cm tall, are transplanted into sandy loam soil in 3-inch clay pots and infested with 25-50 green peach aphids of mixed ages. Twenty-four hours later they are sprayed, to the point of runoff, with 50--50 acetone-water solutions of the test chemicals. Treated plants are held in the greenhouse and mortality is recorded after 48 hours. Test concentrations range from 0.05% down to that at which 50% mortality occurs.
# [3] = tested on: Black Bean Aphid [Aphis fabae (Scop.)]; experiment: Direct Spray Assay on Black Bean Aphid; conditions: direct spray on nasturtium plants; mortality after 7 days
# Description: Nasturtium plants (Tropaeolum sp.), approximately 5 cm tall, are transplanted into sandy loam soil in 3-inch clay pots and infested with 25-50 black bean aphids of mixed ages. Twenty-four hours later they are sprayed, to the point of runoff, with 50--50 acetone-water solutions of the test chemicals. Treated plants are held in the greenhouse and mortality is recorded after 7 days. Test concentrations range from 0.05% down to that at which 50% mortality occurs.
# [4] = tested on: Black Bean Aphid [Aphis fabae (Scop.)]; experiment: Systemic Assay on Black Bean Aphid; conditions: 168 h, systemic, chemical in soil, mortality after 7 days, read-out: Insecticide Activity - Approximate LD50, BAS (Black Bean Aphid - systemic)
# Description: Test chemicals are diluted in acetone and aliquots are thoroughly mixed into 500 grams of dry, sandy loam soil. The treated soil is placed in a pint ice cream carton and a nasturtium plant (Tropaeolum sp.) approximately 5 cm tall is transplanted into each carton. The plants are then infested with approximately 25 black bean aphids of mixed ages and placed in the greenhouse. Seven days later mortality is recorded. Test concentrations range from 10 PPM down to that at which approximately 50% mortality occurs.
# [5] = tested on: Lygus Bug [Lygus hesperus (Knight)]; experiment: Lygus Bug spray; conditions: spray on adult bugs; mortality after 48 hours
# Description: Test compounds are in a 50--50 acetone-water solution. Two cc of the solutions are sprayed through a Devilbiss type EGA hand spray gun into circular cardboard cages containing one string bean pod and ten adult lygus bugs. The test cages are covered on the bottom with cellophane and the top with tulle netting. Percent mortality is recorded 48 hours later. Test concentrations range from 0.05% down to that at which approximately 50% mortality occurs.
# [6] = tested on: German Cockroach [Blattella germanica (Linne)]; experiment: German Cockroach spray; conditions: spray on 1-month-old nymphs; mortality after 7 days
# Description: Test compounds are diluted in a 50--50 acetone-water solution. Two cc of the solutions are sprayed through a DeVilbiss type EGA hand spray gun into circular cardboard cages containing 10 l-month-old German cockroach nymphs. The test cages are covered on the bottom with cellophane and the top with tulle netting. Percent mortality is recorded 7 days later. Test concentrations range from 0.1% down to that at which approximately 50% mortality occurs.
# [7] = tested on: Cabbage Looper [Trichoplusia ni (Hubner)]; experiment: Cabbage Looper on dipped squash cotyledons; conditions: second-instar larvae, cotyledon dip; 48 hours plus 5 days
# Description: (§1) Test compounds are diluted in a 50--50 acetone-water solution. Cotyledons of hyzini squash (Calabacita abobrinha), approximately 1 × 1.5 inches, are immersed in the test solutions for 2-3 seconds and placed on a wire screen to dry. The dried leaves are placed in petri dishes containing a moistened piece of filter paper and infested with five second-instar cabbage looper larvae. Mortality of the larvae is recorded 48 hours later, and a piece of synthetic media is added to dishes containing survivors. These are then held for 5 additional days to observe for any delayed effects of the test chemicals. Test concentrations range from 0.1% down to that at which approximately 50% mortality occurs.
# [8] = tested on: Tobacco Budworm [Heliothis virescens (F.)]; experiment: Tobacco Budworm on dipped Romaine lettuce leaves; conditions: larvae, Romaine lettuce leaf dip; 48 hours plus 5 days
# Description: as §1
# The procedure is the same as that used for the cabbage looper, except that sections of Romaine lettuce (Latica sativa) leaves were used instead of cotyledons of hyzini squash.
# [9] = tested on: Southern House Mosquito [Culex pipiens quinquefasciatus (Say)]; experiment: Southern House Mosquito larvae in aqueous solution; conditions: 48 h, read-out: Insecticide Activity - Approximate LD50, MOS (Southern House Mosquito)
# Description: Insecticidal activity is determined using third-instar larvae of the mosquito (Culex pipiens quinquefasciatus). Ten larvae are placed in a 6-ounce, number 67 Dixie wax paper cup containing 100 ml of an aqueous solution of the test chemical. The treated larvae are stored at 70°F, and 48 hours later the mortality is recorded. Test concentrations range from 0.5 PPM down to that at which approximately 50% mortality occurs.
compound,measurement,setting,value
CCN(C(=NC(=O)CSP(=S)(OC)OC)OC)c1cccc(C)c1 [Compound 19],"Insecticide Activity - Approximate LD50, HF (Housefly)",[1],62 μg/25 F.
same,"Insecticide Activity - Approximate LD50, GPA (Green Peach Aphid)",[2],.03%
same,"Insecticide Activity - Approximate LD50, BA (Black Bean Aphid - direct spray)",[3],.002%
same,LC50,[4],> 10 µg/mL
same,"Insecticide Activity - Approximate LD50, LB (Lygus Bug)",[5],> .05%
same,"Insecticide Activity - Approximate LD50, GR (German Cockroach)",[6],> .1%
same,"Insecticide Activity - Approximate LD50, CL (Cabbage Looper)",[7],> .1%
same,"Insecticide Activity - Approximate LD50, TBW (Tobacco Budworm)",[8],> .1%
same,LC50,[9],> 1 µg/mL

# From patent US3984410A, “Isourea acetylphosphate insecticides” (priority 1975, dated 1976)
